For 7 cell lines, relative viability results are on record in the supplement of paper PMC10307832.

Assay in all cases: relative viability (nuclei count vs DMSO), 5 days (fraction); higher = more cells survive
Compound in the experiment “GW-2580 + Foretinib”: COC1=CC=C(C=C1)COC2=C(C=C(C=C2)CC3=CN=C(N=C3N)N)OC [GW-2580] + COc1cc2c(Oc3ccc(NC(=O)C4(C(=O)Nc5ccc(F)cc5)CC4)cc3F)ccnc2cc1OCCCN1CCOCC1 [Foretinib] (partner 0.25 µM)
Summed up:
(§1)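 For relative viability, nuclei counts in treated wells were divided by those in vehicle wells. Lung cancer cell lines had been pin-tool dosed in 1536-well plates the day after seeding and cultured for 5 days, then fixed and stained in one step (final 0.05% Triton X-100, 1% formaldehyde, 1 ug/ml Hoechst) and imaged at 4×. Doses were one drug alone or a fixed anchor-drug dose plus five library-drug doses (not always all listed) in √10 steps, and values are duplicate-plate medians.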

Compound in the experiment “Fedratinib + Palbociclib”: Cc1cnc(Nc2ccc(OCCN3CCCC3)cc2)nc1Nc1cccc(S(=O)(=O)NC(C)(C)C)c1 [Fedratinib] + CC(=O)c1c(C)c2cnc(Nc3ccc(N4CCNCC4)cn3)nc2n(C2CCCC2)c1=O [Palbociclib] (partner 0.5 µM)
Summed up: as §1

Compound in the experiment “Fedratinib + Olaparib”: Cc1cnc(Nc2ccc(OCCN3CCCC3)cc2)nc1Nc1cccc(S(=O)(=O)NC(C)(C)C)c1 [Fedratinib] + O=C(c1cc(Cc2n[nH]c(=O)c3ccccc23)ccc1F)N1CCN(C(=O)C2CC2)CC1 [Olaparib] (partner 8 µM)
Summed up:
as §1

Compound in the experiment “Fedratinib + Trametinib”: Cc1cnc(Nc2ccc(OCCN3CCCC3)cc2)nc1Nc1cccc(S(=O)(=O)NC(C)(C)C)c1 [Fedratinib] + CC(=O)Nc1cccc(-n2c(=O)n(C3CC3)c(=O)c3c(Nc4ccc(I)cc4F)n(C)c(=O)c(C)c32)c1 [Trametinib] (partner 0.02 µM)
Summed up:
as §1

Compound in the experiment “Fedratinib + Pictilisib”: Cc1cnc(Nc2ccc(OCCN3CCCC3)cc2)nc1Nc1cccc(S(=O)(=O)NC(C)(C)C)c1 [Fedratinib] + CS(=O)(=O)N1CCN(Cc2cc3nc(-c4cccc5[nH]ncc45)nc(N4CCOCC4)c3s2)CC1 [Pictilisib] (partner 1 µM)
Put shortly:
as §1

Compound in the experiment “GW-2580 + Palbociclib”: COC1=CC=C(C=C1)COC2=C(C=C(C=C2)CC3=CN=C(N=C3N)N)OC [GW-2580] + CC(=O)c1c(C)c2cnc(Nc3ccc(N4CCNCC4)cn3)nc2n(C2CCCC2)c1=O [Palbociclib] (partner 0.5 µM)
Put shortly:
as §1

Consider NCI-H1355, for which the relative viability worked out at 1.04 with GW-2580 + Foretinib (first compound 0.08 µM); 1.06 with GW-2580 + Foretinib (first compound 0.8 µM); 0.841 in the experiment with GW-2580 + Foretinib (first compound 2.53 µM); 0.923 in the experiment with GW-2580 + Foretinib (first compound 8 µM); 0.412 with Fedratinib + Palbociclib (first compound 0.1 µM); 0.396 with Fedratinib + Palbociclib (first compound 0.3162 µM). For the same cell line, the relative viability with Fedratinib + Palbociclib (first compound 1 µM) came out at 0.385; with Fedratinib + Olaparib (first compound 0.1 µM), 0.771; with Fedratinib + Olaparib (first compound 0.3162 µM), 0.817; in the experiment with Fedratinib + Olaparib (first compound 1 µM), 0.699; with Fedratinib + Trametinib (first compound 0.1 µM) it was 0.442; in the experiment with Fedratinib + Trametinib (first compound 0.3162 µM), 0.387. Further, the relative viability with Fedratinib + Trametinib (first compound 1 µM) turned out to be 0.412; with Fedratinib + Pictilisib (first compound 0.1 µM), 0.366; with Fedratinib + Pictilisib (first compound 0.3162 µM) it was 0.437; in the experiment with Fedratinib + Pictilisib (first compound 1 µM), 0.382; in the experiment with GW-2580 + Palbociclib (first compound 0.08 µM) it was 0.407; with GW-2580 + Palbociclib (first compound 0.8 µM), 0.439. The relative viability stood at 0.337 with GW-2580 + Palbociclib (first compound 2.53 µM) and 0.322 in the experiment with GW-2580 + Palbociclib (first compound 8 µM).
NCI-H1395: the relative viability with GW-2580 + Foretinib (first compound 0.08 µM) is 1.08; in the experiment with GW-2580 + Foretinib (first compound 0.8 µM), 0.934; in the experiment with GW-2580 + Foretinib (first compound 2.53 µM), 1; in the experiment with GW-2580 + Foretinib (first compound 8 µM), 0.923; with Fedratinib + Palbociclib (first compound 0.1 µM) it was 0.599; with Fedratinib + Palbociclib (first compound 0.3162 µM), 0.561. Besides, the relative viability with Fedratinib + Palbociclib (first compound 1 µM) came to 0.493; in the experiment with Fedratinib + Olaparib (first compound 0.1 µM), 0.416; with Fedratinib + Olaparib (first compound 0.3162 µM) it was 0.468; in the experiment with Fedratinib + Olaparib (first compound 1 µM) it was 0.444; in the experiment with Fedratinib + Trametinib (first compound 0.1 µM) it was 0.979; in the experiment with Fedratinib + Trametinib (first compound 0.3162 µM) it was 0.962. Further, the relative viability in the experiment with Fedratinib + Trametinib (first compound 1 µM) was found to be 0.814; in the experiment with Fedratinib + Pictilisib (first compound 0.1 µM), 0.515; in the experiment with Fedratinib + Pictilisib (first compound 0.3162 µM) it was 0.642; with Fedratinib + Pictilisib (first compound 1 µM) it was 0.469; in the experiment with GW-2580 + Palbociclib (first compound 0.08 µM), 0.594; with GW-2580 + Palbociclib (first compound 0.8 µM), 0.603. For the same cell line, the results for the relative viability with GW-2580 + Palbociclib (first compound 2.53 µM) and in the experiment with GW-2580 + Palbociclib (first compound 8 µM) were 0.57 and 0.613, respectively.
On to NCI-H1437, for which the relative viability in the experiment with GW-2580 + Foretinib (first compound 0.08 µM) turned out to be 1.38; in the experiment with GW-2580 + Foretinib (first compound 0.8 µM) it was 1.28; with GW-2580 + Foretinib (first compound 2.53 µM), 1.14; with GW-2580 + Foretinib (first compound 8 µM), 0.91; in the experiment with Fedratinib + Palbociclib (first compound 0.1 µM), 0.264; with Fedratinib + Palbociclib (first compound 0.3162 µM) it was 0.308. Moreover, the relative viability is 0.293 in the experiment with Fedratinib + Palbociclib (first compound 1 µM); 0.627 with Fedratinib + Olaparib (first compound 0.1 µM); 0.645 with Fedratinib + Olaparib (first compound 0.3162 µM); 0.598 with Fedratinib + Olaparib (first compound 1 µM); 0.492 with Fedratinib + Trametinib (first compound 0.1 µM); 0.561 with Fedratinib + Trametinib (first compound 0.3162 µM). The relative viability with Fedratinib + Trametinib (first compound 1 µM) was determined as 0.564; in the experiment with Fedratinib + Pictilisib (first compound 0.1 µM) it was 0.339; with Fedratinib + Pictilisib (first compound 0.3162 µM), 0.528; with Fedratinib + Pictilisib (first compound 1 µM), 0.119; in the experiment with GW-2580 + Palbociclib (first compound 0.08 µM) it was 0.307; in the experiment with GW-2580 + Palbociclib (first compound 0.8 µM) it was 0.338. Further, the results for the relative viability with GW-2580 + Palbociclib (first compound 2.53 µM) and with GW-2580 + Palbociclib (first compound 8 µM) were 0.297 and 0.262, respectively.
For NCI-H1650, the relative viability was found to be 1.29 with GW-2580 + Foretinib (first compound 0.08 µM); 1.43 with GW-2580 + Foretinib (first compound 0.8 µM); 1.19 in the experiment with GW-2580 + Foretinib (first compound 2.53 µM); 1.05 in the experiment with GW-2580 + Foretinib (first compound 8 µM); 0.299 with Fedratinib + Palbociclib (first compound 0.1 µM); 0.408 with Fedratinib + Palbociclib (first compound 0.3162 µM). Also, the relative viability in the experiment with Fedratinib + Palbociclib (first compound 1 µM) was determined as 0.288; in the experiment with Fedratinib + Olaparib (first compound 0.1 µM), 0.835; with Fedratinib + Olaparib (first compound 0.3162 µM), 0.726; with Fedratinib + Olaparib (first compound 1 µM) it was 0.674; with Fedratinib + Trametinib (first compound 0.1 µM), 0.534; in the experiment with Fedratinib + Trametinib (first compound 0.3162 µM) it was 0.545. The relative viability was determined as 0.642 with Fedratinib + Trametinib (first compound 1 µM); 0.355 with Fedratinib + Pictilisib (first compound 0.1 µM); 0.571 with Fedratinib + Pictilisib (first compound 0.3162 µM); 0.155 in the experiment with Fedratinib + Pictilisib (first compound 1 µM); 0.395 with GW-2580 + Palbociclib (first compound 0.08 µM); 0.48 with GW-2580 + Palbociclib (first compound 0.8 µM). For the same cell line, the relative viability with GW-2580 + Palbociclib (first compound 2.53 µM) was found to be 0.354; with GW-2580 + Palbociclib (first compound 8 µM), 0.326.
In the case of NCI-H1651, the relative viability in the experiment with GW-2580 + Foretinib (first compound 0.08 µM) was 0.958; in the experiment with GW-2580 + Foretinib (first compound 0.8 µM), 0.804; with GW-2580 + Foretinib (first compound 2.53 µM), 0.754; with GW-2580 + Foretinib (first compound 8 µM), 0.745; with Fedratinib + Palbociclib (first compound 0.1 µM), 0.49; with Fedratinib + Palbociclib (first compound 0.3162 µM) it was 0.485. The relative viability with Fedratinib + Palbociclib (first compound 1 µM) is 0.508; with Fedratinib + Olaparib (first compound 0.1 µM), 0.173; with Fedratinib + Olaparib (first compound 0.3162 µM), 0.169; with Fedratinib + Olaparib (first compound 1 µM), 0.169; in the experiment with Fedratinib + Trametinib (first compound 0.1 µM) it was 0.778; in the experiment with Fedratinib + Trametinib (first compound 0.3162 µM), 0.826. Further, the relative viability in the experiment with Fedratinib + Trametinib (first compound 1 µM) was 0.859; with Fedratinib + Pictilisib (first compound 0.1 µM), 0.566; in the experiment with Fedratinib + Pictilisib (first compound 0.3162 µM), 0.591; with Fedratinib + Pictilisib (first compound 1 µM) it was 0.0696; with GW-2580 + Palbociclib (first compound 0.08 µM), 0.503; with GW-2580 + Palbociclib (first compound 0.8 µM), 0.594. For the same cell line, the results for the relative viability in the experiment with GW-2580 + Palbociclib (first compound 2.53 µM) and with GW-2580 + Palbociclib (first compound 8 µM) were 0.499 and 0.557, respectively.
Consider NCI-H1666, for which the relative viability is 0.928 in the experiment with GW-2580 + Foretinib (first compound 0.08 µM); 0.936 with GW-2580 + Foretinib (first compound 0.8 µM); 0.948 in the experiment with GW-2580 + Foretinib (first compound 2.53 µM); 0.991 with GW-2580 + Foretinib (first compound 8 µM); 0.636 with Fedratinib + Palbociclib (first compound 0.1 µM); 0.657 in the experiment with Fedratinib + Palbociclib (first compound 0.3162 µM). The relative viability with Fedratinib + Palbociclib (first compound 1 µM) turned out to be 0.629; with Fedratinib + Olaparib (first compound 0.1 µM), 0.792; in the experiment with Fedratinib + Olaparib (first compound 0.3162 µM), 0.751; with Fedratinib + Olaparib (first compound 1 µM) it was 0.747; with Fedratinib + Trametinib (first compound 0.1 µM), 1; in the experiment with Fedratinib + Trametinib (first compound 0.3162 µM), 0.824. In addition, the relative viability in the experiment with Fedratinib + Trametinib (first compound 1 µM) came out at 0.861; with Fedratinib + Pictilisib (first compound 0.1 µM), 0.409; with Fedratinib + Pictilisib (first compound 0.3162 µM) it was 0.38; with Fedratinib + Pictilisib (first compound 1 µM) it was 0.224; in the experiment with GW-2580 + Palbociclib (first compound 0.08 µM) it was 0.647; with GW-2580 + Palbociclib (first compound 0.8 µM) it was 0.65. Further, the relative viability with GW-2580 + Palbociclib (first compound 2.53 µM) worked out at 0.649; with GW-2580 + Palbociclib (first compound 8 µM) it was 0.64.
In the case of NCI-H1734, the relative viability came out at 0.894 with GW-2580 + Foretinib (first compound 0.08 µM); 0.855 with GW-2580 + Foretinib (first compound 0.8 µM); 0.783 with GW-2580 + Foretinib (first compound 2.53 µM); 0.717 in the experiment with GW-2580 + Foretinib (first compound 8 µM); 0.415 with Fedratinib + Palbociclib (first compound 0.1 µM); 0.344 with Fedratinib + Palbociclib (first compound 0.3162 µM). Also, the relative viability in the experiment with Fedratinib + Palbociclib (first compound 1 µM) turned out to be 0.334; with Fedratinib + Olaparib (first compound 0.1 µM) it was 0.683; in the experiment with Fedratinib + Olaparib (first compound 0.3162 µM), 0.618; with Fedratinib + Olaparib (first compound 1 µM) it was 0.505; in the experiment with Fedratinib + Trametinib (first compound 0.1 µM) it was 0.605; with Fedratinib + Trametinib (first compound 0.3162 µM), 0.583. Besides, the relative viability with Fedratinib + Trametinib (first compound 1 µM) came out at 0.636; in the experiment with Fedratinib + Pictilisib (first compound 0.1 µM), 0.443; in the experiment with Fedratinib + Pictilisib (first compound 0.3162 µM) it was 0.479; with Fedratinib + Pictilisib (first compound 1 µM) it was 0.142; with GW-2580 + Palbociclib (first compound 0.08 µM), 0.364; in the experiment with GW-2580 + Palbociclib (first compound 0.8 µM), 0.432. Besides, the relative viability with GW-2580 + Palbociclib (first compound 2.53 µM) was found to be 0.37; with GW-2580 + Palbociclib (first compound 8 µM), 0.311.
